From patent publication US20120065173A1 (priority 2006, published 2012)

Target: T1, recombinant human GR (Homo sapiens, UniProt P04150)
T1 construct: purchased Panvera/Invitrogen P2812 (kit P2893)
T1 sequence (P04150 1-777): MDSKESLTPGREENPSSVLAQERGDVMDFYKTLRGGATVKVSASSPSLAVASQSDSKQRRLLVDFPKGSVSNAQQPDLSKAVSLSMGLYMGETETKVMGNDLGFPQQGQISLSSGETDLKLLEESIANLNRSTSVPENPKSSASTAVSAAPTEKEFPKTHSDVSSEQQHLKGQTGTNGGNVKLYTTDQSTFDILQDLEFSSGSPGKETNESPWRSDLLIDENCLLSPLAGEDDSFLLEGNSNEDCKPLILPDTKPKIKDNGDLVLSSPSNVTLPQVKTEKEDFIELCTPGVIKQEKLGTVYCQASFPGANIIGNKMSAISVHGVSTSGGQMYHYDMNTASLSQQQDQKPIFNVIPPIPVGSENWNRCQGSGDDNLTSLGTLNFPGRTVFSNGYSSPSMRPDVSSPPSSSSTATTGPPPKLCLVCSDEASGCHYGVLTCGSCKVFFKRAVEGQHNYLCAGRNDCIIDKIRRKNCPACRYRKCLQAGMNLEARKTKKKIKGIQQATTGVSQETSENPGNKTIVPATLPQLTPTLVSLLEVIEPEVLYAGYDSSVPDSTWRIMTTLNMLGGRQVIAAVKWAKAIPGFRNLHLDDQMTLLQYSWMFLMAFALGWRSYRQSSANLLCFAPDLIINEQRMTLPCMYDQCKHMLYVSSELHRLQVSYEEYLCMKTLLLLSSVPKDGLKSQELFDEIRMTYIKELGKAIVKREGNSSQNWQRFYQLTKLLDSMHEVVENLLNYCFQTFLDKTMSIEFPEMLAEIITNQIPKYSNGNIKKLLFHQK
Assay: Human Glucocorticoid Receptor (GR) Assay, fluorescence polarization (GRhuFL_FP_v2)
Assay type: binding
Conditions: GS Red tracer, 2 hours at room temperature, 100% control 10 μM Dexamethasone
Method: Human Glucocorticoid Receptor (GR) Assay
The assay is based on a commercial kit from Panvera/Invitrogen (Part number P2893). The assay technology is fluorescence polarization. […] The GR and Stabilizing Peptide reagents are stored at −70° C. while the GS Red is stored at −20° C. Also included in the kit are 1M DTT (Panvera, Part number P2325, stored at −20° C.) and GR Screening buffer 10× (Panvera, Part number P2814, stored at −70° C. initially but once thawed stored at room temperature). Avoid repeated freeze/thaws for all reagents. The GR Screening buffer 10× comprises 100 mM potassium phosphate, 200 mM sodium molybdate, 1 mM EDTA and 20% DMSO.
0% control was 100% DMSO and 100% control was 10 μM Dexamethasone. Background solution (8 μL; assay buffer 10×, Stabilizing Peptide, DTT and ice cold MQ water) was added to the background wells. GS Red solution (7 μL; assay buffer 10×, Stabilizing Peptide, DTT, GS Red and ice cold water) was added to all wells except background wells. GR solution (7 μL; assay buffer 10×, Stabilizing Peptide, DTT, GR and ice cold water) was added to all wells. The plate was sealed and incubated in a dark at room temperature for 2 hours.

C[C@H](NS(=O)(=O)C1CC1)[C@H](Oc1ccc2c(cnn2-c2ccc(F)cc2)c1)c1cnc2ccccc2c1 [Example 42, N-((1R,2S)-1-(1-(4-fluorophenyl)-1H-indazol-5-yloxy)-1-(quinolin-3-yl)propan-2-yl)cyclopropanesulfonamide]
IC50: 3.6 nM

C[C@H](NS(=O)(=O)C1CC1)[C@H](Oc1ccc2c(cnn2-c2ccc(F)cc2)c1)c1ccc2c(c1)OCCO2 [Example 43, N-((1R,2S)-1-(2,3-dihydrobenzo[b][1,4]dioxin-6-yl)-1-(1-(4-fluorophenyl)-1H-indazol-5-yloxy)propan-2-yl)cyclopropanesulfonamide]
IC50: 2.3 nM
